Measurements taken from ChEMBL document CHEMBL1137911, “Synthesis and evaluation of 4-triazolylflavans as new aromatase inhibitors” (Bioorg Med Chem Lett, 2004).

Assays:
Aromatase [1] = target: T1, Aromatase (Homo sapiens, UniProt P11511); assay: In vitro inhibition of [1,2,6,7-3H]androstenedione binding to Aromatase of human placental microsomes
T1 sequence (P11511 whole entry): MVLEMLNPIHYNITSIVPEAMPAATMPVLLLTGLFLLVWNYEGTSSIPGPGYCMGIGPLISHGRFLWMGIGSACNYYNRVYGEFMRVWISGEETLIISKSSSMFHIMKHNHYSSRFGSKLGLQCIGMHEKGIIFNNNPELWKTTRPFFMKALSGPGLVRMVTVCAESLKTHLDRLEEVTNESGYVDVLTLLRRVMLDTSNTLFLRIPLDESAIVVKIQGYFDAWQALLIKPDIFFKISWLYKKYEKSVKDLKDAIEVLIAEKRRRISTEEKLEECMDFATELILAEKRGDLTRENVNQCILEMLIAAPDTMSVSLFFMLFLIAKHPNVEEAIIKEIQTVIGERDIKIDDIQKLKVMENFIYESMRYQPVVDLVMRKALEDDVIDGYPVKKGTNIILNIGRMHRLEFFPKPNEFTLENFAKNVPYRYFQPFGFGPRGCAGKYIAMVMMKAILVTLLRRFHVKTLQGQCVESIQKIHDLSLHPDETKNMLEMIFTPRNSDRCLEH

Aromatase [2] = target: T1, Aromatase; assay: Relative potency for inhibition of aromatase binding compared to aminoglutethimide

| IC50 (Aromatase [1]) | Relative Potency (Aromatase [2]) | Structure (SMILES) |
| --- | --- | --- |
| 1400 nM | 3.7 | COc1ccc2c(c1)OC(c1ccccc1)CC2n1cncn1 (stereo not drawn) |
| 430 nM | 12.1 | Oc1ccc2c(c1)OC(c1ccccc1)CC2n1cncn1 (stereo not drawn) |
| 40 nM | 126.8 | Oc1ccc2c(c1)OC(c1ccccc1)CC2n1ccnc1 (stereo not drawn) |
| 31600 nM | 0.16 | COc1ccc2c(c1)OC(c1ccccc1)CC2n1cnnc1 (stereo not drawn) |
